Read-outs that look alike come from different tables or passages of the source.
Columns and labels:
[1] = tested on: VEGF promoter (VEGF-luciferase reporter) in Hepatoma 3B (hep3B) cells; assay: VEGF-luciferase cell-based reporter assay, desferoxamine-induced, Hepatoma 3B (hep3B) cells; conditions: 15 h, read-out: Secondary Assay VEGF-luciferase IC50
Text: This cell-based reporter assay involves the use of a luciferase reporter gene under the direct control of the VEGF promoter. Induction of HIF using desferoxamine leads to the transcription of luciferase through activation of the VEGF (Vascular Endothelial Growth Factor) promoter, which in turn leads to an increase in luciferase activity, which can be measured using most commercially available luciferase assay kits. Molecules that disrupt the HIF complex cause inhibition of HIF-dependent luciferase activation and lead to a reduction in luciferase activity. This assay allows the activity of the compounds to be assessed against the VEGF promoter, which is essential for VEGF production and subsequent angiogenesis.
Hepatoma 3B (hep3B) cells (ATCC Ref. No. HB-8064) were plated in 24-well plates at 2×10^4/well in 500 μL DMEM/10% FCS, and were transfected the following day using Fugene 6 (Roche Biochemicals®, Lewes, E. Sussex, UK). Transfection mixtures per well contained 6 μL 10% Fugene, 200 ng VEGF-luciferase reporter (rat VEGF promoter, NCBI GenBank, accession number U22373, Levy et al., 1995) and 2 ng TK-renilla (Promega®, Madison, Wis., USA) (for transfection efficiency control). Transfection was performed as recommended by manufacturer. Compounds were added the following day. After 1 hour incubation at 37° C., desferoxamine (Sigma®, Dorset, UK) was added at 100 μM to induce HIF activity. Duplicate wells without desferoxamine were run in parallel. Cells were harvested 15 hours later, and luciferase activity was measured using Dual Luciferase Assay System (Promega®, see also Technical Manual, Part #TM040, Instructions for Use of Products E1910 and E1960, revised May/1999).

VEGF = assay: VEGF-ELISA (Quantikine sandwich immunoassay of VEGF in cell supernatant); type: cell-based; conditions: Homo sapiens, 17 h; read-out: Secondary Assay VEGF-ELISA IC50
Experimental: This assay employs the quantitative sandwich enzyme immunoassay technique. A monoclonal antibody (R&D Systems®, Abingdon, Oxon, UK) specific for VEGF was pre-coated onto a microplate. To this was added a sample containing VEGF. After washing, a second anti-VEGF antibody coupled to horseradish peroxidase was added. […] Typically, cells were plated at a concentration of 2.5×10^4 cells/well, and incubated with either 100 μM desferroxamine or at 0.1% O2 for 17 hours at 37° C. 200 μL of supernatant were removed and the VEGF quantitated using the Quantikine® ELISA kit from R&D Systems® (catalog # DVEOO) exactly according to the manufacturer's instructions. The assay is calibrated each time using recombinant human VEGF.

[2] = target: T1, interaction between HIF-1α and p300 (His-HIF-1α / GST-p300) (Homo sapiens, UniProt Q09472+Q16665); assay: Primary assay: fluorescence-based (DELFIA) screening assay for inhibition of the HIF-1α/p300 interaction; type: binding
T1 construct: corresponding to the C-terminal 390 amino acids into vector pET28a; A plasmid containing the N-terminal 595 amino acids of human p300; made in house; host or cells: E. coli
T1 sequence (Q16665 437-826 limits assumed): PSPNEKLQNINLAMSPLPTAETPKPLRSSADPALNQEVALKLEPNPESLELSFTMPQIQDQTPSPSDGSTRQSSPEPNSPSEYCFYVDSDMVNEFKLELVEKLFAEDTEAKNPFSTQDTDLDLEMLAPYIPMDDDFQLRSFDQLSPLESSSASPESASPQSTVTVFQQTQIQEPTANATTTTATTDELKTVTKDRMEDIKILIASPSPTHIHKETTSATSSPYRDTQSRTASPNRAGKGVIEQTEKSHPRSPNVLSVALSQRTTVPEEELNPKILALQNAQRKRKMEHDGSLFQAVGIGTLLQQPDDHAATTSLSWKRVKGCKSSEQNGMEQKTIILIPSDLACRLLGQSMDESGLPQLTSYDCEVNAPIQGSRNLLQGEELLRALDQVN
T1 sequence (Q09472 1-595 limits assumed): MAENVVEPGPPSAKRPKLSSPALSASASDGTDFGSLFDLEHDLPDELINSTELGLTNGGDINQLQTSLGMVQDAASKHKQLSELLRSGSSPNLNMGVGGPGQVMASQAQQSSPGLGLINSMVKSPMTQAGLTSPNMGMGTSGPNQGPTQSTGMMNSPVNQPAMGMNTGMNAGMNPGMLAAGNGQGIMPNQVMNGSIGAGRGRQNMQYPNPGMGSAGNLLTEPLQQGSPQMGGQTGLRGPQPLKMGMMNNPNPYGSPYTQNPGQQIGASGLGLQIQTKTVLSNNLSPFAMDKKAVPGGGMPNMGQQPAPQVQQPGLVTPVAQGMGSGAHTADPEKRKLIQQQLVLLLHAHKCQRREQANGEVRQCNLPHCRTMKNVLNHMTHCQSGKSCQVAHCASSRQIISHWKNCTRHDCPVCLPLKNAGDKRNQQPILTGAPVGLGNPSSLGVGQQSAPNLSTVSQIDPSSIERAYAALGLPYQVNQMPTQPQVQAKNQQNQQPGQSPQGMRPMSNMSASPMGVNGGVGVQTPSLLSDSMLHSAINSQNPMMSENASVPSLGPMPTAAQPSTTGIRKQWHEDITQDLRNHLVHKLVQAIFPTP
Experimental: Candidate compounds were assessed for their ability to inhibit the interaction between HIF-1α and p300 using a high throughput fluorescence-based screening assay (DELFIA) as follows.
A plasmid expressing His-HIF-1α fusion protein was constructed by PCR, by amplifying and subcloning a fragment of the human HIF-1α cDNA (NCBI GenBank, accession number AH006957) corresponding to the C-terminal 390 amino acids into vector pET28a (Novagen®, Madison, Wis., USA). A plasmid containing the N-terminal 595 amino acids of human p300 (NCBI GenBank, accession number U01877) inserted into vector pGEX2T (Pharmacia®, Little Chalfont, Bucks, UK) was used for the production of GST-p300 fusion protein. The recombinant proteins were produced in E. coli. His-HIF-1α was purified using Ni-NTA agarose beads, according to manufacture's method (Qiagen®, Crawley, West Sussex, UK). GST-p300 was purified using Glutathione-sepharose beads (Amersham Pharmacia®, Little Chalfont, Bucks, UK) according to manufacturer's instructions. A titration of every batch of p300 was carried out in order to determine the optimum dilution of the protein to obtain at least a 10:1 ratio signal to noise in the binding assay.
The assay was performed in 96-well Polysorb plates (Nalge Nunc International®, Rochester, N.Y., USA) as follows. Plates were coated with His-HIF-1α at 50 ng/well in […] and incubated overnight at 4° C. The plates were then washed 3 times with deionized water and blocked with 100 μL/well 3% BSA in PBS for 3 hours at 4° C. After washing 3 times as before, GST-p300 was added at the appropriate dilution (1:800 in this screening) in binding buffer (50 mM HEPES pH 7.5, 50 mM NaCl, 0.1% BSA, 0.5 mM DTT). The reaction was incubated at room temperature for 1 hour. Plates were washed 3 times and anti-GST Europium-conjugated antibody (from Wallac®, Turku, Finland) was added at 50 ng/well in […]. After 45 minutes incubation, plates were washed 3 times as before. Then, 100 μL/well enhancement solution (from Wallac®, Catalog No. 1244-105) was added and allowed to react for 15 minutes at room temperature. Plates were read on a Victor 2 plate reader (from Wallac®).

[3] = read-out: Primary Assay Inhibition IC50

Row | Structure (SMILES) | IC50 [1] [µM] | IC50 (VEGF) [µM] | IC50 [2] [µM] | melting point | IC50 [2, 3] [µM]
1 | Cc1cc2nc3c(=O)[nH]c(=O)nc-3n(CC(O)C(O)C(O)CO)c2cc1C (centres unmarked) [P2083033] | 20 | – | – | – | –
2 | CCN(CC)c1ccc(C=C2C(=O)NC(=O)NC2=O)cc1 [P2083675] | 50 | 75 | 35 | – | –
3 | O=C1NC(=S)NC(=O)C1=C/C=C/c1ccccc1 [PX072015, 5-(3-Phenyl-allylidene)-2-thioxo-dihydro-pyrimidine-4,6-dione] | 18 | – | – | – | –
4 | O=C1NC(=O)C(=Cc2ccc([N+](=O)[O-])s2)C(=O)N1 [PX074037] | 35 | 30 | 100 | – | –
5 | O=C1NC(=S)NC(=O)C1=Cc1ccc([N+](=O)[O-])s1 [PX074038, 5-(5-Nitro-thiophen-2-ylmethylene)-2-thioxo-dihydro-pyrimidine-4,6-dione] | 50 | – | 20 | 285 °C (dec.) | –
6 | O=C1NC(=S)NC(=O)C1=Cc1c[nH]c2ccccc12 [PX075276, 5-(1H-Indol-3-ylmethylene)-2-thioxo-dihydro-pyrimidine-4,6-dione] | 10.8 | 18.8 | 30 | – | –
7 | O=C1NC(=S)NC(=O)C1=Cc1ccc(-c2cc(C(F)(F)F)cc(C(F)(F)F)c2)o1 [PX075367] | 50 | 75 | 45 | – | –
8 | O=C1NC(=S)NC(=O)C1=Cc1ccco1 [PX083634, 5-(Furan-2-ylmethylene)-2-thioxo-dihydro-pyrimidine-4,6-dione] | 50 | – | 65 | – | –
9 | Cn1c(=O)[nH]c(=O)c2c1nc(N)n2CC(O)COc1ccc(Cl)cc1 (centres unmarked) [PX084819] | 50 | – | – | – | 10
10 | Cc1cc2nc3c(=O)n(CC(=O)O)c(=O)nc-3n(C)c2cc1C [PX088992] | 20 | – | – | – | 10
11 | Cc1cc(C)c(C=C2C(=O)NC(=S)NC2=O)[nH]1 [PX089624] | 12.5 | 6.2 | 45 | – | –
12 | CN(C)c1ccc(C=C2C(=O)N(c3ccccc3)C(=S)N(c3ccccc3)C2=O)cc1[N+](=O)[O-] [PX089626] | 75 | – | 40 | – | –
13 | CN(C)c1ccc(C=C2C(=O)NC(=S)NC2=O)cc1 [PX089631, 5-(4-dimethylamino-benzylidene)-2-thioxo-dihydro-pyrimidine-4,6-dione] | 16.3 | 27.5 | 25 | – | –
14 | CCOc1ccc(Br)cc1C=C1C(=O)NC(=S)NC1=O [PX089633] | 50 | – | 70 | – | –
15 | O=C1NC(=S)NC(=O)C1=Cc1cccc2ccccc12 [PX089635, 5-(Naphthalen-1-ylmethylene)-2-thioxo-dihydro-pyrimidine-4,6-dione] | – | – | 80 | 280 °C (dec.) | –
16 | O=C1NC(=S)NC(=O)C1=Cc1ccc[nH]1 [PX089639, 5-(1H-pyrrol-2-ylmethylene)-2-thioxo-dihydro-pyrimidine-4,6-dione] | 25 | 50 | 20 | 280 °C (dec.) | –
17 | CN(CCC#N)c1ccc(C=C2C(=O)NC(=S)NC2=O)cc1 [PX089643] | 87.5 | 100 | 55 | – | –
18 | O=C1C(=Cc2ccc(Cl)cc2)C(=O)N(c2ccccc2)C(=S)N1c1ccccc1 [PX089645, 5-(4-Chloro-benzylidene)-1,3-diphenyl-2-thioxo-dihydro-pyrimidine-4,6-dione] | – | 200 | 80 | – | –
19 | O=C1NC(=S)NC(=O)C1=Cc1cc(Br)cs1 [PX089648, 5-(4-Bromo-thiophen-2-ylmethylene)-2-thioxo-dihydro-pyrimidine-4,6-dione] | 30 | 32.5 | 45 | 230 °C (dec.) | –

Row | Structure (SMILES) | IC50 [1] [µM] | IC50 (VEGF) [µM] | IC50 [2] [µM] | melting point | IC50 [2, 3] [µM]
20 | COc1ccccc1C=C1C(=O)NC(=S)NC1=O [PX105993, 5-(2-Methoxy-benzylidene)-2-thioxo-dihydro-pyrimidine-4,6-dione] | – | – | 80 | – | –
21 | O=C1NC(=S)NC(=O)C1=Cc1ccc(Oc2ccccc2)cc1 [PX106021, 5-(4-Phenoxy-benzylidene)-2-thioxo-dihydro-pyrimidine-4,6-dione] | 100 | 80 | – | – | –
22 | O=C1NC(=S)NC(=O)C1=Cc1c2ccccc2cc2ccccc12 [PX106031, 5-(Anthracen-9-ylmethylene)-2-thioxo-dihydro-pyrimidine-4,6-dione] | 50 | – | – | – | –
23 | Cc1ccccc1N1C(=O)/C(=C/c2ccco2)C(=O)NC1=S [PX106130] | – | – | 29 | – | –
24 | Cc1cc(C=C2C(=O)NC(=S)NC2=O)c(C)n1-c1ccccc1 [PX106151] | 40 | 75 | 160 | – | –
25 | Cc1cc(C)cc(-n2c(C)cc(C=C3C(=O)NC(=S)NC3=O)c2C)c1 [PX106155] | 27.5 | 45 | 10 | – | –
26 | Cc1cc(C=C2C(=O)NC(=S)NC2=O)c(C)n1-c1sc2c(c1C#N)CCCC2 [PX106174] | – | – | 43 | – | –
27 | O=C1NC(=S)N(c2ccc(F)cc2)C(=O)/C1=C/c1ccc(-c2ccc(Cl)c(C(=O)O)c2)o1 [PX106244] | – | – | 40 | – | –
28 | O=C1NC(=S)N(c2ccc(F)cc2)C(=O)/C1=C/c1ccc2c(c1)OCO2 [PX106255] | – | – | 3 | – | –
29 | COc1ccc2cccc(/C=C3/C(=O)NC(=S)N(c4ccc(Br)cc4)C3=O)c2c1 [PX106265] | 32 | – | 50 | – | –
30 | COc1ccc(OC)c(N2C(=O)/C(=C/c3ccco3)C(=O)NC2=S)c1 [PX106274] | – | – | 29 | – | –
31 | CCN1C(=O)/C(=C/C=C/c2ccco2)C(=O)NC1=S [PX106281] | 28 | 30 | 35 | – | –
32 | COc1cccc(N2C(=O)/C(=C/c3ccsc3)C(=O)NC2=S)c1 [PX106287] | 100 | – | – | – | –
33 | O=C1NC(=S)N(c2ccc(Cl)cc2)C(=O)/C1=C/C=C/c1ccco1 [PX106291] | – | – | 80 | – | –
34 | Cc1ccc(N2C(=O)/C(=C/c3ccoc3)C(=O)NC2=S)cc1 [PX106297] | 100 | – | 32 | – | –
35 | O=C1NC(=S)NC(=O)C1=Cc1ccc(-c2cc(Cl)ccc2Cl)o1 [PX106326] | 50 | – | 40 | – | –
36 | O=C1NC(=S)NC(=O)C1=Cc1cn(Cc2ccccc2)c2ccccc12 [PX106341] | 57.5 | 20 | 49 | – | –
37 | O=C1NC(=S)NC(=O)C1=Cc1ccccc1OCc1ccccc1F [PX106343] | 100 | – | 49 | – | –
38 | O=C1NC(=S)NC(=O)C1=Cc1ccc(/C=C/c2ccccc2)cc1 [px106027, 5-(4-Styryl-benzylidene)-2-thioxo-dihydro-pyrimidine-4,6-dione] | 75 | – | – | – | –
